This is an account of results in patent publication US20070004720A1, “Use of tyrosine kinase inhibitors for the treatment of inflammatory processes” (priority 2003, published 2007).

The subject of this assay is cigarette smoke-induced influx of neutrophilic granulocytes into the lung tissue. The experiment in a line: Inhibition of the smoke-induced accumulation of granulocytes in the lung tissue (MPO activity). It is filed as in vivo, rats (strain: Sprague-Dawley). The settings on record: for ED50: Rattus norvegicus, male Sprague-Dawley rats, 5 days cigarette smoke exposure, intratracheal dose daily 30 min before smoke, lung tissue MPO, linear regression, read-out: ID50 (dosage which led to a 50% inhibition of the MPO activity). From the text: Inhibition of the Smoke-Induced Accumulation of Granulocytes in the Lung Tissue Lung indications: Inhibition of the cigarette smoke-induced influx of neutrophilic granulocytes into the lung tissue by the above-mentioned EGF-receptor kinase inhibitor. Male rats (strain: Sprague-Dawley) weighing from 250-300 g were exposed for 5 days to the smoke from 8 cigarettes per day. The animals in the group treated with compound A, anaesthetised with isofluran, were given an intratracheal dose of 0.03 or 0.1 mg/kg of compound A in a volume of 0.05 ml each day 30 min before the start of the exposure to smoke. On the last day of the test the animals were killed 4 hours after the last exposure to smoke and the lung tissue was removed. A sample of 70-200 mg was taken from each lung and placed in a test tube prepared with 1 ml of 0.5% hexadecyltrimethylammonium bromide. The samples were homogenised for 15 sec using an Ultraturrax. The homogenised samples were centrifuged at 15700 g in an Eppendorf bench centrifuge for 5 min at ambient temperature. […] of the supernatant was removed and mixed with […] of phosphate buffer (50 mmol/l) containing 0.197 mg/ml of O-dianisidine dihydrochloride. After 10 minutes' incubation at ambient temperature the absorption was measured with a spectral photometer at a wavelength of 450 nm. The dosage which led to a 50% inhibition of the MPO activity (=ID50) was determined by linear regression. Exposure to cigarette smoke in rats led to an influx of neutrophilic granulocytes into the lung tissue, measured by the content of myeloperoxidase in the tissues, which is specific for neutrophilic granulocytes.

Regarding `COc1cc2ncnc(Nc3ccc(F)c(Cl)c3)c2cc1OC1CCN(C(=O)N2CCOCC2)CC1` [A, 4-[(3-chloro-4-fluoro-phenyl)amino]-6-{1-[(morpholin-4-yl)carbonyl]-piperidin-4-yloxy}-7-methoxy-quinazoline], the ED50 was 0.1 mg/kg. Besides, the “inhibition of the smoke-induced accumulation of granulocytes” value (rats, intratracheal 0.03 or 0.1 mg/kg daily, 5 days smoke exposure, myeloperoxidase content of lung tissue) was “significant (p<0.005) inhibition”.

For `COCC(=O)N1CCC(Oc2cc3c(Nc4ccc(F)c(Cl)c4)ncnc3cc2OC)CC1` [B, 4-[(3-chloro-4-fluoro-phenyl)amino]-6-{1-[(methoxymethyl)carbonyl]-piperidin-4-yloxy}-7-methoxy-quinazoline], the ED50 came out at 0.01 mg/kg.

With `COc1cc2ncnc(Nc3ccc(F)c(Cl)c3)c2cc1OC1CCN(CCNC(C)=O)CC1` [C, 4-[(3-chloro-4-fluoro-phenyl)amino]-6-[1-(2-acetylamino-ethyl)-piperidin-4-yloxy]-7-methoxy-quinazoline], the ED50 was found to be 0.03 mg/kg.

With `COc1cc2ncnc(Nc3ccc(F)c(Cl)c3)c2cc1O[C@H]1CC[C@@H](N(C)C(=O)C2CCOCC2)CC1` [D, 4-[(3-chloro-4-fluoro-phenyl)amino]-6-(cis-4-{N-[(tetrahydropyran-4-yl)carbonyl]-N-methyl-amino}-cyclohexan-1-yloxy)-7-methoxy-quinazoline], the ED50 was 0.02 mg/kg.

For the compound `COc1cc2ncnc(Nc3ccc(F)c(Cl)c3)c2cc1O[C@H]1CC[C@@H](N(C)S(=O)(=O)N2CCOCC2)CC1` [E, 4-[(3-chloro-4-fluoro-phenyl)amino]-6-(cis-4-{N-[(morpholin-4-yl)sulphonyl]-N-methyl-amino}-cyclohexan-1-yloxy)-7-methoxy-quinazoline], the ED50 came out at 0.4 mg/kg.

As for `COc1cc2ncnc(Nc3ccc(F)c(Cl)c3)c2cc1O[C@H]1CC[C@@H](NC(C)=O)CC1` [F, 4-[(3-chloro-4-fluoro-phenyl)amino]-6-(cis-4-acetylamino-cyclohexan-1-yloxy)-7-methoxy-quinazoline], the ED50 amounted to 0.015 mg/kg.

As to `C#Cc1cccc(Nc2ncnc3cc(OC)c(OC4CCN(C(=O)OC(C)(C)C)CC4)cc23)c1` [G, 4-[(3-ethynyl-phenyl)amino]-6-[1-(tert.-butyloxycarbonyl)-piperidin-4-yloxy]-7-methoxy-quinazoline], the ED50 amounted to 0.01 mg/kg.

Consider `COc1cc2ncnc(Nc3ccc(F)c(Cl)c3)c2cc1O[C@H]1CC[C@@H](N(C)C(=O)N2CCCCC2)CC1` [H, 4-[(3-chloro-4-fluoro-phenyl)amino]-6-(cis-4-{N-[(piperidin-1-yl)carbonyl]-N-methyl-amino}-cyclohexan-1-yloxy)-7-methoxy-quinazoline], for which the ED50 was found to be 0.15 mg/kg.

As to `COc1cc2ncnc(Nc3ccc(F)c(Cl)c3)c2cc1O[C@H]1CC[C@@H](N(C)C(=O)N2CCN(C)CC2)CC1` [I, 4-[(3-chloro-4-fluoro-phenyl)amino]-6-(cis-4-{N-[(4-methyl-piperazin-1-yl)carbonyl]-N-methyl-amino}-cyclohexan-1-yloxy)-7-methoxy-quinazoline], the ED50 is 0.15 mg/kg.

With `COc1cc2ncnc(Nc3ccc(F)c(Cl)c3)c2cc1O[C@H]1CC[C@@H](NC(=O)N2CCOCC2)CC1` [K, 4-[(3-chloro-4-fluoro-phenyl)amino]-6-{cis-4-[(morpholin-4-yl)carbonylamino]-cyclohexan-1-yloxy}-7-methoxy-quinazoline], the ED50 came out at 0.13 mg/kg.

On to `COCCOc1cc2ncnc(Nc3ccc(F)c(Cl)c3)c2cc1OC1CCN(C(=O)N2CCOCC2)CC1` [L, 4-[(3-chloro-4-fluoro-phenyl)amino]-6-{1-[(morpholin-4-yl)carbonyl]-piperidin-4-yloxy}-7-(2-methoxy-ethoxy)-quinazoline], for which the ED50 stood at 0.4 mg/kg.

Regarding `C#Cc1cccc(Nc2ncnc3cc(OC)c(OC4CCN(C)CC4)cc23)c1` [M, 4-[(3-ethynyl-phenyl)amino]-6-(1-methyl-piperidin-4-yloxy)-7-methoxy-quinazoline], the ED50 is 0.07 mg/kg.
